# Results reported in US9265253B2, “Use of macrocyclic picolinamides as fungicides” (DOW AGROSCIENCES LLC, priority 2013, dated 2016).
# Where two headings read alike, the source gives them in different places.
# Columns and labels:
# Type in all cases: in vivo
# Venturia inaequalis = test: Apple Scab (VENTIN) disease control; details: 1 Day Protectant; for pest or weed control at 100 ppm: Venturia inaequalis, topical, 24 h, read-out: Disease Control VENTIN 1 DP
# Protocol: Technical grades of materials were dissolved in acetone, which were then mixed with nine volumes of water containing 110 ppm Triton X-100. The fungicide solutions were applied onto wheat seedlings using an automated booth sprayer to run-off. All sprayed plants were allowed to air dry prior to further handling. All fungicides were evaluated using the aforementioned method for their activity vs. all target diseases. Wheat leaf blotch and brown rust activity were also evaluated using track spray applications, in which case the fungicides were formulated as EC formulations, containing 0.1% Trycol 5941 in the spray solutions. Wheat plants (variety Yuma) were grown from seed in a greenhouse in 50% mineral soil/50% soil-less Metro mix until the first leaf was fully emerged, with 7-10 seedlings per pot. These plants were inoculated with an aqueous spore suspension of Septoria tritici either prior to or after fungicide treatments. After inoculation the plants were kept in 100% relative humidity (one day in a dark dew chamber followed by two to three days in a lighted dew chamber at 20° C.) to permit spores to germinate and infect the leaf. The plants were then transferred to a greenhouse set at 20° C. for disease to develop. When disease symptoms were fully expressed on the 1st leaves of untreated plants, infection levels were assessed on a scale of 0 to 100 percent disease severity. Percent disease control was calculated using the ratio of disease severity on treated plants relative to untreated plants. Apple seedlings (variety McIntosh) were grown in soil-less Metro mix, with one plant per pot. Seedlings with two expanding young leaves at the top (older leaves at bottom of the plants were trimmed) were used in the test. Plants were inoculated with a spore suspension of Venturia inaequalis 24 hr after fungicide treatment and kept in a 22° C. dew chamber with 100% RH for 48 hr, and then moved to a greenhouse set at 20° C. for disease to develop. Fungicide formulation, application and disease assessment on the sprayed leaves followed the procedures as described in the Example A.
# Alternaria solani = test: Tomato Early Blight (ALTESO) disease control; details: 1 Day Protectant; for pest or weed control at 100 ppm: Alternaria solani, topical, 24 h, read-out: Disease Control ALTESO 1 DP
# Protocol: Technical grades of materials were dissolved in acetone, which were then mixed with nine volumes of water containing 110 ppm Triton X-100. The fungicide solutions were applied onto wheat seedlings using an automated booth sprayer to run-off. All sprayed plants were allowed to air dry prior to further handling. All fungicides were evaluated using the aforementioned method for their activity vs. all target diseases. Wheat leaf blotch and brown rust activity were also evaluated using track spray applications, in which case the fungicides were formulated as EC formulations, containing 0.1% Trycol 5941 in the spray solutions. Wheat plants (variety Yuma) were grown from seed in a greenhouse in 50% mineral soil/50% soil-less Metro mix until the first leaf was fully emerged, with 7-10 seedlings per pot. These plants were inoculated with an aqueous spore suspension of Septoria tritici either prior to or after fungicide treatments. After inoculation the plants were kept in 100% relative humidity (one day in a dark dew chamber followed by two to three days in a lighted dew chamber at 20° C.) to permit spores to germinate and infect the leaf. The plants were then transferred to a greenhouse set at 20° C. for disease to develop. When disease symptoms were fully expressed on the 1st leaves of untreated plants, infection levels were assessed on a scale of 0 to 100 percent disease severity. Percent disease control was calculated using the ratio of disease severity on treated plants relative to untreated plants. Tomato plants (variety Outdoor girl) were propagated in soil-less Metro mix, with each pot having one plant, and used when 12 to 14 days old. Test plants were inoculated with an aqueous spore suspension of Alternaria solani 24 hr after fungicide treatments. After inoculation the plants were kept in 100% relative humidity (one day in a dark dew chamber followed by two to three days in a lighted dew chamber at 20° C.) to permit spores to germinate and infect the leaf. The plants were then transferred to a growth room at 22° C. for disease to develop. Fungicide formulation, application and disease assessment on the sprayed leaves followed the procedures as described in the Example A.
# [1] = system: Puccinia triticina; Synonym: Puccinia recondite f. Sp. Tritici; test: Wheat Brown Rust (PUCCRT) disease control; details: for pest or weed control at 100 ppm / pest or weed control at 121.5 g/ha: Puccinia triticina, topical
# Outline: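 Brown rust on first-leaf Yuma wheat: spore inoculation before or after spray application (acetone/Triton X-100 solution, or EC with Trycol in track spray), overnight 100% RH at 22 °C, disease developed at 24 °C. Severity scored 0–100% and converted to percent control against untreated.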
# [2] = system: Mycosphaerella graminicola; Anamorph: Septoria tritici; test: Leaf Blotch of Wheat (SEPTTR) disease control; details: for pest or weed control at 100 ppm / pest or weed control at 121.5 g/ha: Zymoseptoria tritici
# Outline: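 Yuma wheat, 1st leaf stage; spray to run-off, acetone + 9 vol water/110 ppm Triton X-100; S. tritici spores pre- or post-treatment; dew chamber 100% RH, then greenhouse 20° C. Read: % severity vs untreated → % control.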
# [3] = 24 h, 1 Day Protectant, rate 100 ppm, read-out: PUCCRT 1 DP disease control
# [4] = 24 h, 1 Day Protectant, rate 121.5 g/H, read-out: PUCCRT 1 DP disease control
# [5] = 72 h, 3 Day Curative, rate 100 ppm, read-out: PUCCRT 3 DC disease control
# [6] = 72 h, 3 Day Curative, rate 121.5 g/H, read-out: PUCCRT 3 DC disease control
# [7] = 24 h, 1 Day Protectant, rate 100 ppm, read-out: SEPTTR 1 DP disease control
# [8] = 24 h, 1 Day Protectant, rate 121.5 g/H, read-out: SEPTTR 1 DP disease control
# [9] = 72 h, 3 Day Curative, rate 100 ppm, read-out: SEPTTR 3 DC disease control
# [10] = 72 h, 3 Day Curative, rate 121.5 g/H, read-out: SEPTTR 3 DC disease control
# [11] = 1 Day Protectant, rate 121.5 g/H
SMILES,pest or weed control at 100 ppm (Venturia inaequalis),pest or weed control at 100 ppm (Alternaria solani),"pest or weed control at 100 ppm [1, 3]","pest or weed control at 121.5 g/ha [1, 4]","pest or weed control at 100 ppm [1, 5]","pest or weed control at 121.5 g/ha [1, 6]","pest or weed control at 100 ppm [2, 7]","pest or weed control at 121.5 g/ha [2, 8]","pest or weed control at 100 ppm [2, 9]","pest or weed control at 121.5 g/ha [2, 10]","PUCCRT 3 DC disease control ([1]; 3 Day Curative, rate 121.5 g/H)",Disease Control VENTIN 1 DP (Venturia inaequalis; 100 ppm),Disease Control ALTESO 1 DP (Alternaria solani; 100 ppm),"PUCCRT 1 DP disease control ([1]; 1 Day Protectant, rate 100 ppm)","PUCCRT 1 DP disease control [1, 11]","PUCCRT 3 DC disease control ([1]; 3 Day Curative, rate 100 ppm)","SEPTTR 1 DP disease control ([2]; 1 Day Protectant, rate 100 ppm)","SEPTTR 1 DP disease control [2, 11]","SEPTTR 3 DC disease control ([2]; 3 Day Curative, rate 100 ppm)","SEPTTR 3 DC disease control ([2]; 3 Day Curative, rate 121.5 g/H)"
CCOCC(=O)OCOc1c(OC)ccnc1C(=O)N[C@H]1CCC[C@H](CCOC)[C@@H](Oc2ccccc2)[C@H](C)OC1=O [Compound F183],0 to 80%,0 to 80%,80 to 100%,80 to 100%,80 to 100%,80 to 100%,80 to 100%,80 to 100%,80 to 100%,80 to 100%,,,,,,,,,,
COc1ccnc(C(=O)N[C@H]2CCC[C@H](CC3CCCC3)[C@@H](OCC3CC3)[C@H](C)OC2=O)c1OCOC(C)=O [Compound F117],80 to 100%,80 to 100%,80 to 100%,80 to 100%,80 to 100%,80 to 100%,80 to 100%,80 to 100%,80 to 100%,80 to 100%,,,,,,,,,,
COc1ccnc(C(=O)N[C@H]2CCC[C@H](Cc3ccc(F)cc3F)[C@@H](OCC(C)C)[C@H](C)OC2=O)c1OCOC(C)=O [Compound F145],80 to 100%,80 to 100%,,80 to 100%,,80 to 100%,,80 to 100%,,80 to 100%,,,,,,,,,,
COc1ccnc(C(=O)N[C@H]2CCC[C@H](Cc3ccc(F)cc3)[C@@H](OCC3CC3)[C@H](C)OC2=O)c1OCOC(C)=O [Compound F96],0 to 80%,80 to 100%,80 to 100%,80 to 100%,80 to 100%,,80 to 100%,80 to 100%,80 to 100%,80 to 100%,B (More than 0-Less than 80),,,,,,,,,
"COc1ccnc(C(=O)N[C@H]2CCC[C@H](CCF)[C@@H](OCC(C)C)[C@H](C)OC2=O)c1OCOC(C)=O [Compound F128, ((2-(((3S,7R,8R,9S)-7-(2-fluoroethyl)-8-isobutoxy-9-methyl-2-oxooxonan-3-yl)carbamoyl)-4-methoxypyridin-3-yl)oxy)methyl acetate]",0 to 80%,80 to 100%,80 to 100%,80 to 100%,80 to 100%,80 to 100%,80 to 100%,80 to 100%,80 to 100%,80 to 100%,,,,,,,,,,
COc1ccnc(C(=O)N[C@H]2CCC[C@H](Cc3ccccc3)[C@@H](OCC(C)C)[C@H](C)OC2=O)c1OCOC(C)=O [Compound F106],0 to 80%,80 to 100%,80 to 100%,80 to 100%,80 to 100%,80 to 100%,80 to 100%,80 to 100%,80 to 100%,80 to 100%,,,,,,,,,,
CCOCC(=O)OCOc1c(OC)ccnc1C(=O)N[C@H]1CCC[C@H](Cc2ccc(F)cc2)[C@@H](OCC2CC2)[C@H](C)OC1=O [Compound F164],80 to 100%,80 to 100%,80 to 100%,80 to 100%,80 to 100%,0 to 80%,80 to 100%,80 to 100%,80 to 100%,80 to 100%,,,,,,,,,,
COc1ccnc(C(=O)N[C@H]2CCC[C@H](Cc3ccc(F)cc3)[C@@H](OCC3CC3)[C@H](C)OC2=O)c1OCOC(C)=O [Compound F98],,,,,,,,,,,A (80-100),B (More than 0-Less than 80),A (80-100),A (80-100),A (80-100),A (80-100),A (80-100),A (80-100),A (80-100),A (80-100)
COc1ccnc(C(=O)N[C@H]2CCC[C@H](CC(F)F)[C@@H](Oc3ccccc3)[C@H](C)OC2=O)c1OC(C)=O [Compound F82],0 to 80%,,80 to 100%,80 to 100%,80 to 100%,80 to 100%,80 to 100%,80 to 100%,80 to 100%,80 to 100%,,,,,,,,,,
COc1ccnc(C(=O)N[C@H]2CCC[C@H](Cc3ccccc3)[C@@H](Oc3ccccc3)[C@H](C)OC2=O)c1OCOC(C)=O [Compound F108],0 to 80%,,80 to 100%,80 to 100%,80 to 100%,0 to 80%,80 to 100%,80 to 100%,80 to 100%,80 to 100%,,,,,,,,,,
COc1ccnc(C(=O)N[C@H]2CCC[C@H](CC(F)F)[C@@H](Oc3ccccc3)[C@H](C)OC2=O)c1OCOC(C)=O [Compound F138],0 to 80%,,80 to 100%,80 to 100%,80 to 100%,80 to 100%,80 to 100%,80 to 100%,80 to 100%,80 to 100%,,,,,,,,,,
COc1ccnc(C(=O)N[C@H]2CCC[C@H](Cc3ccccc3)[C@@H](OC3CCCC3)[C@H](C)OC2=O)c1OCOC(C)=O [Compound F110],0 to 80%,,80 to 100%,80 to 100%,80 to 100%,80 to 100%,80 to 100%,80 to 100%,80 to 100%,80 to 100%,,,,,,,,,,
